Assay results taken from patent US20090088461A1, “Methods of Treating or Preventing Cardiac Disease Associated With a High Fat Diet” (Synvista Therapeutics, Inc., priority 2007, published 2009).
Read-outs that look alike come from different tables or passages of the source.

Assays:
[1] = system: IgG crosslinked to circulating red blood cells; assay: RBC-IgG assay; assay type: in vivo; conditions: streptozotocin-induced diabetic rats, dosed orally 10 mg/kg body weight, 19 days
From the text: 2. […] 3. […] 4. […] 5. […] 6. […] 7. […] 8.
10. […] 11. […] 12. […] 13. […] 14. […] 15. […] 16. […] 17.

[2] = target: T1, AGE-BSA previously crosslinked to the collagen (Bos taurus, UniProt P02769); assay: Cross-Link Breaking Assay (sandwich enzyme immunoassay); assay type: biochemical; conditions: for Breaking Anti-AGE: anti-AGE antibody; for Breaking Anti-BSA: anti-BSA antibody
T1 construct: Bovine Serum Albumin (Type V), (BSA) Calbiochem; purchased Calbiochem (BSA Type V); Collaborative Biomedical Products (Biocoat collagen plates)
Procedure: The present invention also involves a novel sandwich enzyme immunoassay used to ascertain the ability of test compounds to “break” or reverse already formed advanced glycosylation endproducts by detecting the breaking of AGE (Advanced glycosylation endproduct) moieties from AGE-crosslinked protein. This assay comprises:
a) incubation of AGE-modified bovine serum albumin (AGE BSA) on collagen-coated wells of microtiter plates for a period of 2-6 hours' at a temperature of 37° C.
b) washing of the wells with PBS-Tween;
c) application of the test compounds to the washed wells of step b;
d) incubation of the test compounds applied to the washed wells for an additional 12-24 hours at a temperature of about 37° C.; and
e) detection of the AGE-breaking using an antibody raised against AGE-ribonuclease or cross-link breaking with an antibody against BSA.
In order to ascertain the ability of the compounds of the instant invention to “break” or reverse already formed advanced glycosylation endproducts, a novel sandwich enzyme immunoassay was developed which detects breaking of AGE (Advanced glycosylation endproduct) moieties from AGE-crosslinked protein. The assay utilizes collagen-coated 96 well microtiter plates that are obtained commercially. […] Following an incubation period of 16 hours (37° C.) cross-link-breaking is detected using an antibody raised against AGE-ribonuclease or with an antibody against BSA. […] Details of the assay are as follows:
1. AGE-BSA stock solutions were prepared as follows. Sodium phosphate buffer (0.4 M) was prepared by dissolving 6 grams of monobasic sodium phosphate in 100 ml of distilled water, 7 grams of dibasic sodium phosphate (0.4 M) in 100 ml of distilled water and adjusting the pH of the dibasic solution to 7.4 with the monobasic solution. Sodium azide (0.02 grams) was added per 100 ml volume to inhibit bacterial growth. The BSA solution was prepared as follows: 400 mg of Type V BSA (bovine serum albumin) was added for each ml of sodium phosphate buffer (above). A 400 mM glucose solution was prepared by dissolving 7.2 grams of dextrose in 100 ml of sodium phosphate buffer (above). The BSA and glucose solutions were mixed 1:1 and incubated at 37° C. for 12 weeks. The pH of the incubation mixture was monitored weekly and adjusted to pH 7.4 if necessary. After 12 weeks, the AGE-BSA solution was dialyzed against PBS for 48 hours with four buffer changes, each at a 1:500 ratio of solution to dialysis buffer. Protein concentration was determined by the micro-Lowry method. The AGE-BSA stock solution was aliquoted and stored at −20° C.
2. Working solutions for crosslinking and breaking studies were prepared as follows. Test compounds were dissolved in PBS and the pH was adjusted to pH 7.4 if necessary. AGE-BSA stock solution was diluted in PBS to measure maximum crosslinking and in the inhibitor solution for testing inhibitory activity of compounds. The concentration of AGE-BSA necessary to achieve the optimum sensitivity was determined by initial titration of each lot of AGE-BSA.
3. Wash buffer (“PBS-Tween”) was, prepared as follows. PBS was prepared by dissolving the following salts in one liter of distilled water: NaCl, 8 grams; KCl, 0.2 gram, KH2PO4. […] Tween-20 was added to a final concentration of 0.05% (vol/vol).
4. Substrates for detection of secondary antibody binding were prepared by diluting the HRP substrate buffer 1:10 in distilled water and mixing with ABTS chromogen 1:50 just prior to use.
1. Biocoat plates were blocked with 300 μl of “Superbloc”. Plates were blocked for one hour at room temperature and were washed with PBS-Tween three times with the Dynatech platewasher before addition of test reagents.
2. Each experiment was set up in the following manner. The first three wells of the Biocoat plate were used for the reagent blank. Fifty microliters of solutions AGE-BSA were added to test wells in triplicate and only PBS in blank wells.

[3] = target: cross-linking of glycated bovine serum albumin (AGE-BSA) to the rat tail tendon collagen-coated 96-well plate (Bos taurus, UniProt P02769); assay: Cross-Linking Inhibition Assay; conditions: for inhibition at 10000 µM: read-out: Relative Cross-link Inhibition (at 10 mM)
Procedure: The following method was used to evaluate the ability of the compounds of the present invention to inhibit the cross-linking of glycated bovine serum albumin (AGE-BSA) to the rat tail tendon collagen-coated 96-well plate.
The blocking solution was removed from the wells by, washing the plate twice with PBS-'Tween 20 solution (0.05% Tween 20) using a NUNq-multiprobe or Dynatech ELISA-plate washer. Cross-linking of AGE-BSA (1 to 10 mg per well depending on the batch of AGE-BSA) to rat tail tendon collagen coated plate was performed with and without the testing ‘compound dissolved in PBS buffer at pH 7.4 at the desired concentrations by the, addition of 50 μl each of the AGE-BSA diluted in PBS or in the solution of test compound at 37° C. for 4 hours.
Unbrowned BSA in PBS buffer with or without testing compound were added to the separate wells as the blanks. The un-cross-linked AGE-BSA was then removed by washing the wells three times with PBS-Tween buffer. The amount of AGE-BSA cross-linked to the tail tendon collagen-coated plate was then quantitated using a polyclonal antibody raised against AGE-RNase. After a one-hour incubation period, AGE antibody was removed by washing 4 times with PBS-Tween.
The bound AGE antibody was then detected with the addition of horseradish peroxidase-conjugated secondary antibody—goat anti-rabbit immunoglobulin and incubation for 30 minutes. […] The reaction was allowed for an additional 15 minutes and the absorbance was read at 410 nm in a Dynatech plate reader.

[4] = Reaction with 1-phenyl-1,2-propanedione
[5] = target: AGE-crosslinks that form when AGE-modified BSA (AGE-BSA) is allowed to react with unmodified, native collagen (Bos taurus, UniProt P02769); assay: Release of BSA from pre-formed AGE-BSA/collagen complexes; assay type: biochemical
From the text: Once early, addition products form on proteins, further reactions can ensue to effect a covalent, protein-protein crosslinking reaction. In this regard, a compound of the formula I, N-phenacylthiazolium bromide, was allowed to react with the AGE-crosslinks that form when AGE-modified BSA (AGE-BSA) is allowed to react with unmodified, native collagen. […] Again, this confirmed that a significant portion of the AGE-crosslinks that form under experimental conditions consist of an α-diketone or related structure that is susceptible to cleavage by the advantageous bidentate-type molecules of the compounds of formula I under physiological conditions.

[6] = detection with anti-AGE antibody, read-out: IC50 (mM) Anti-AGE

Chain of cross-linking of glycated bovine serum albumin (AGE-BSA) to the rat tail tendon collagen-coated 96-well plate (P02769 25-607): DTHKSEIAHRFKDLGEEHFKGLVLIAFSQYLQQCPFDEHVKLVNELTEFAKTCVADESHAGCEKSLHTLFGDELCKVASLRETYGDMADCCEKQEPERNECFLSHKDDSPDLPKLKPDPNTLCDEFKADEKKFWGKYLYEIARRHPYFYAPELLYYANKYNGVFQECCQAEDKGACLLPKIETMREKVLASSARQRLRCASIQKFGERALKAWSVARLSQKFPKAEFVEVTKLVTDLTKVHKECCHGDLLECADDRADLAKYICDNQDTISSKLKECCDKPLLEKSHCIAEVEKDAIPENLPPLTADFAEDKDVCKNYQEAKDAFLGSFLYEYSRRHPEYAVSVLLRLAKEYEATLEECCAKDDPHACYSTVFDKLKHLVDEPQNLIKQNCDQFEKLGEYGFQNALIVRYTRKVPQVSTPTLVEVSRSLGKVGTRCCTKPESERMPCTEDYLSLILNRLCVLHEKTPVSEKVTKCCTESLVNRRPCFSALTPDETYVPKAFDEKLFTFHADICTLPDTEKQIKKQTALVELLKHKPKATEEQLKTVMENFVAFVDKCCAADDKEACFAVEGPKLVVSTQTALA
T1 sequence (P02769 25-607): as above
T1 sequence (P02454 152-1207 partner limits assumed): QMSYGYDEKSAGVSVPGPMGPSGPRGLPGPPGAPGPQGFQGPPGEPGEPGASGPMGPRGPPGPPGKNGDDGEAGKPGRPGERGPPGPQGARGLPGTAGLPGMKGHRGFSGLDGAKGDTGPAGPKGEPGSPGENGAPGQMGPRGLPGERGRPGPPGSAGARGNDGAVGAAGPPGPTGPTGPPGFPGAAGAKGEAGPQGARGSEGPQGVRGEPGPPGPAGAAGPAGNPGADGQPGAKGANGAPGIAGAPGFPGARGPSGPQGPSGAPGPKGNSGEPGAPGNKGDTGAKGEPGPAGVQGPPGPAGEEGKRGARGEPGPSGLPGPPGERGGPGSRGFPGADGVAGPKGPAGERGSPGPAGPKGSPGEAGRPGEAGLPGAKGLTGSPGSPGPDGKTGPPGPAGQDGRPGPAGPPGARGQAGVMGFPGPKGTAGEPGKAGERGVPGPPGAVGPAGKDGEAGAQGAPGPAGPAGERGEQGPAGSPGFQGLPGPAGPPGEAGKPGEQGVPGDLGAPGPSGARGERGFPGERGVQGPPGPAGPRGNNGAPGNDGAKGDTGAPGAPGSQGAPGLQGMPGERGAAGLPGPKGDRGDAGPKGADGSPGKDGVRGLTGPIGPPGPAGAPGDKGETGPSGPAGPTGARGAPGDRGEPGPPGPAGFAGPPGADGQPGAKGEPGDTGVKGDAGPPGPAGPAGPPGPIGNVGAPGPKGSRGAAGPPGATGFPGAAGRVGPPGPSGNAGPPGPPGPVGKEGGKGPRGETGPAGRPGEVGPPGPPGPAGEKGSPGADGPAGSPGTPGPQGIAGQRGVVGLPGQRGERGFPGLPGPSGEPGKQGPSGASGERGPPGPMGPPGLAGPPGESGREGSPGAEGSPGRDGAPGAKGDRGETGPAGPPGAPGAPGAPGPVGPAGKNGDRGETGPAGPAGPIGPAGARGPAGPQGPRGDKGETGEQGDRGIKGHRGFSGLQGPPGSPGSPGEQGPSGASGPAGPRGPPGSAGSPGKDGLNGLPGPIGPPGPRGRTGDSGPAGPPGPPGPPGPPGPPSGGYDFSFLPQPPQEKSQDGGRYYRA
T1 sequence (P02466 86-1125 partner limits assumed): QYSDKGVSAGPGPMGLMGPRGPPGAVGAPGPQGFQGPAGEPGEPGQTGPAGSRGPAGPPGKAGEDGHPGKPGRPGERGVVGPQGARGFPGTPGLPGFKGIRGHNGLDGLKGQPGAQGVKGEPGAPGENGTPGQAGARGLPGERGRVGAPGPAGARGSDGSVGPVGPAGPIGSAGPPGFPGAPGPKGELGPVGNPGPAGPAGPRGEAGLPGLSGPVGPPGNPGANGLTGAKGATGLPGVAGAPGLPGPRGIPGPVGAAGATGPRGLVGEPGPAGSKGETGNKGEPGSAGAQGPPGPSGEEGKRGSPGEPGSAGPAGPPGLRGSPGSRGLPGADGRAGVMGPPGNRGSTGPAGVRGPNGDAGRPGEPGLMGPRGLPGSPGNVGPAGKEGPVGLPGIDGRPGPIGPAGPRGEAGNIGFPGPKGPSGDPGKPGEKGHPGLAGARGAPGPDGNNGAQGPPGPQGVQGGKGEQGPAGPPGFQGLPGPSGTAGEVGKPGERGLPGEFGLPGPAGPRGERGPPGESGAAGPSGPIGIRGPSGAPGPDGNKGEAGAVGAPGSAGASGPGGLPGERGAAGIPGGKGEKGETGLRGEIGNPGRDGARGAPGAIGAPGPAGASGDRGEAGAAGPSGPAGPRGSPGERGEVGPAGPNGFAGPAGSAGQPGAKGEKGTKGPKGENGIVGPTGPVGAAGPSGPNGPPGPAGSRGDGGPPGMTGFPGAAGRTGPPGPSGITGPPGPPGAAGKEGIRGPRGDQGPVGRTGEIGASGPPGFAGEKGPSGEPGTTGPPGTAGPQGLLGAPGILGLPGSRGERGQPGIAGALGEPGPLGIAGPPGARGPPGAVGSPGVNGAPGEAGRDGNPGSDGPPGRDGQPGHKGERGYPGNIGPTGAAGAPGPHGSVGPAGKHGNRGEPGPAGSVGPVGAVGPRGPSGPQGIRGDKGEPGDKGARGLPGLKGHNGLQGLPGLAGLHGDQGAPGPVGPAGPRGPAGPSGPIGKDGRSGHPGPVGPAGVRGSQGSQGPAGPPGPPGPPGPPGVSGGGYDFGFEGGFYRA
Chain of AGE-crosslinks that form when AGE-modified BSA (AGE-BSA) is allowed to react with unmodified, native collagen (P02769 25-607): as the sequence (P02769 25-607) above

Cc1c[n+](CC(=O)c2cc(C(C)(C)C)c(O)c(C(C)(C)C)c2)cs1 [3-[2-(3′,5′-di-tert-butyl-4′-hydroxyphenyl)-2-oxoethyl)-5-methyl-thiazolium bromide]
Percent Inhibition (percent breaking of RBC-IgG) [1]: 65 ± 15 @ 19 days % | Breaking Anti-AGE ([2]; at 1 mM): 65% | Breaking Anti-BSA ([2]; at 1 mM): 69% | Breaking Anti-AGE ([2]; at 10 mM): 48% | Breaking Anti-BSA ([2]; at 10 mM): 49% | IC50 [2, 6]: 3 mM | IC50 [3]: 780 µM | inhibition at 1000 µM ([3]; read-out: Relative Cross-link Inhibition): 69%

Cc1c(CCO)sc[n+]1CC(=O)c1ccc2ccccc2c1.[Br-] [3-(2-(2′-naphthyl)-2-oxoethyl]-4-methyl-5-(2′-hydroxyethyl)-thiazolium bromide]
Percent Inhibition (percent breaking of RBC-IgG) [1]: 40 ± 24 @ 19 days % | Breaking Anti-AGE ([2]; at 10 mM): 52% | Breaking Anti-BSA ([2]; at 10 mM): 61% | Relative Cross-link Inhibition (at 10 mM) [3]: 61%

Cc1csc[n+]1CC(=O)c1ccccc1.[Br-] [3-(2-phenyl-2-oxoethyl)-4-methylthiazolium bromide]
Breaking Anti-AGE ([2]; at 30 mM): 68% | Breaking Anti-BSA ([2]; at 30 mM): 66% | IC50 [3]: 5600 µM

Cc1sc[n+](CC(N)=O)c1C.[Br-] [3-(2-amino-2-oxoethyl)-4,5-dimethyl-thiazolium bromide]
Breaking Anti-AGE ([2]; at 30 mM): 61% | Breaking Anti-BSA ([2]; at 30 mM): 16% | IC50 [3]: 9900 µM

NC(=O)C[n+]1csc2ccccc21.[Br-] [3-(2-amino-2-oxoethyl)-benzothiazolium bromide]
Breaking Anti-AGE ([2]; concentration not given): 77% | Breaking Anti-BSA ([2]; concentration not given): 65% | IC50 [2, 6]: 0.4 mM | IC50 [3]: 20 µM

CCOC(=O)c1ccc(NC(=O)C[n+]2csc(CCO)c2C)cc1.[Br-] [3-(2-4′-carbethoxyanilino)-2-oxoethyl]-4-methyl-5-(2′-hydroxyethyl)-thiazolium bromide]
Breaking Anti-AGE ([2]; at 10 mM): 48% | Breaking Anti-BSA ([2]; at 10 mM): 57% | Relative Cross-link Inhibition ([3]; 1 mM): 8.8% (1 mm)

C=Cc1sc[n+](CC(=O)c2ccccc2)c1C.[Br-] [3-(2-phenyl-2-oxoethyl)-4-methyl-5-vinyl-thiazolium bromide]
Percent Inhibition (percent breaking of RBC-IgG) [1]: 58 ± 21 ® 19 days % | Breaking Anti-AGE ([2]; at 1 mM): 62% | Breaking Anti-BSA ([2]; at 1 mM): 82% | IC50 ([2]; detection with anti-BSA antibody, read-out: IC50 (mM) Anti-BSA): 0.1 mM

COC(=O)C[n+]1csc(C)c1C.[Br-] [3-(2-methoxy-2-oxoethyl)-4,5-dimethylthiazolium bromide]
Breaking Anti-AGE ([2]; at 30 mM): 63% | Breaking Anti-BSA ([2]; at 30 mM): 47% | IC50 [3]: 480 µM

COC(=O)C[n+]1cscc1C.[Br-] [3-(2-methoxy-2-oxoethyl)-4-methylthiazolium bromide]
Breaking Anti-AGE ([2]; at 30 mM): 54% | Breaking Anti-BSA ([2]; at 30 mM): 51% | inhibition at 10000 µM [3]: 58%

Cc1c(CCO)sc[n+]1CC(=O)c1ccccc1.[Br-] [3-(2-phenyl-2-oxoethyl)-4-methyl-5-(2-hydroxyethyl)-thiazolium bromide]
Breaking Anti-AGE ([2]; at 30 mM): 67% | Breaking Anti-BSA ([2]; at 30 mM): 13% | IC50 [3]: > 10000 µM | inhibition at 10000 µM [3]: 36%

O=C(C[n+]1ccsc1)c1ccccc1.[Br-] [3-(2-phenyl-2-oxoethyl)thiazolium bromide]
reaction with 1-phenyl-1,2-propanedione to produce benzoic acid [4]: rapid and readily proceeded | release of BSA from the pre-formed AGE-mediated complexes [5]: concentration-dependent release of BSA | Breaking Anti-AGE ([2]; concentration not given): 73% | Breaking Anti-BSA ([2]; concentration not given): 98% | IC50 [3]: 11100 µM | inhibition at 10000 µM [3]: 34%

Cc1c(CCO)sc[n+]1CC(N)=O.[Br-] [3-(2-amino-2-oxoethyl)-4-methyl-5-(2-hydroxyethyl)thiazolium bromide]
Breaking Anti-AGE ([2]; concentration not given): 65% | Breaking Anti-BSA ([2]; concentration not given): 57% | IC50 [3]: 1420 µM

Cc1c(CCO)sc[n+]1CC(=O)c1ccc2c(c1)OCCO2.[Br-] [3 (2-(1′,4′-benzodioxan-6-yl)-2-oxoethyl]-4-methyl-5-(2′-hydroxyethyl)-thiazolium bromide]
Breaking Anti-AGE ([2]; at 3 mM): 11% | Breaking Anti-BSA ([2]; at 3 mM): 21% | Relative Cross-link Inhibition (at 10 mM) [3]: 13%

Cc1c(CCO)sc[n+]1CC(=O)Nc1c(C(C)C)cccc1C(C)C.[Br-] [3-(2-(2′,6′-Diisopropylanilino)-2-oxoethyl]-4-methyl-5-(2′-hydroxyethyl)-thiazolium bromide]
Breaking Anti-AGE ([2]; at 10 mM): 31% | Breaking Anti-BSA ([2]; at 10 mM): 48% | Relative Cross-link Inhibition (at 10 mM) [3]: 19%

COC(=O)C[n+]1csc2ccccc21.[Br-] [3-(2-methoxy-2-oxoethyl)-benzothiazolium bromide]
Breaking Anti-AGE ([2]; at 30 mM): 66% | Breaking Anti-BSA ([2]; at 30 mM): 37% | IC50 [3]: > 10000 µM | inhibition at 10000 µM [3]: 35%
